From publication PMC3361971 (Journal of Natural Products, 2012)
In brackets after ≈: the same amount, converted by molar mass.

Experiments:
[1] = tested on: lettuce (Lactuca sativa cv. L., Iceberg); experiment: Phytotoxicity assay, lettuce; conditions: 1 mg/mL; visual ranking on scale of 0 to 5; in the presence of light
[2] = tested on: bentgrass (Agrostis stolonifera); experiment: Phytotoxicity assay, bentgrass; conditions: 1 mg/mL; visual ranking on scale of 0 to 5; in the presence of light
[3] = tested on: Leishmania donovani promastigotes; experiment: Antileishmanial assay; assay type: cell-based; conditions: read-out: Antileishmanial activity IC90
[4] = tested on: Vero cells (kidney fibroblast); experiment: Cytotoxicity to Vero cells; assay type: cell-based
[5] = tested on: Plasmodium falciparum W2 (chloroquine resistant) strain; experiment: Antiplasmodial assay, chloroquine-resistant; assay type: cell-based; conditions: selectivity index = IC50 for cytotoxicity (Vero)/IC50 for antiplasmodial activity
[6] = tested on: Plasmodium falciparum D6 (chloroquine sensitive) strain; experiment: Antiplasmodial assay, chloroquine-sensitive; assay type: cell-based; conditions: selectivity index = IC50 for cytotoxicity (Vero)/IC50 for antiplasmodial activity
[7] = tested on: methicillin-resistant Staphylococcus aureus ATCC 33591 (MRSA); experiment: Antimicrobial assay, methicillin-resistant Staph. aureus; assay type: cell-based; conditions: ATCC33591|MRSA
[8] = tested on: Staphylococcus aureus ATCC 29213; experiment: Antimicrobial assay, methicillin-sensitive Staph. aureus; assay type: cell-based; conditions: ATCC29213

Compound	Phytotoxic activity ranking, lettuce [1]	Phytotoxic activity ranking, bentgrass [2]	other results
COc1c(C[C@@H](C)OC(C)=O)c2c3c(C[C@@H](C)OC(C)=O)c(OC)c(=O)c4c(O)cc5c(c6c(cc(O)c(c1=O)c62)OCO5)c43 [Compound 7, (+)-di-O-acetylcercosporin]	3	4	
COc1c(C[C@@H](C)OC(C)=O)c2c3c(C[C@@H](C)O)c(OC)c(=O)c4c(O)cc5c(c6c(cc(O)c(c1=O)c62)OCO5)c43 [Compound 6, (+)-14-O-acetylcercosporin]	2	4	IC90 [3]: 8.5 µM
13-(R)-hydroxy-N-(O-methyl)septoriamycin A [Compound 4]			Cytotoxicity to Vero cells IC50 [4]: no antimicrobial, antifungal, antiprotozoal, phytotoxic, or cytotoxic activity
CC[C@@H](C)[C@H]1O[C@@H](c2c(OC)c(-c3ccccc3)c[n+]([O-])c2OC)[C@H](C)C[C@@H]1C [Compound 10c]			Chloroquine-resistant (W2)-clone S. I. [5]: >1.2; Chloroquine-sensitive (D6)-clone S.I. [6]: >1.1
COc1c(C[C@@H](C)O)c2c3c(C[C@@H](C)O)c(OC)c(=O)c4c(O)cc5c(c6c(cc(O)c(c1=O)c62)OCO5)c43 [Compound 5, (+)-cercosporin]	3	2	MIC [7]: 5 ng/mL (≈ 9.35 nM); MIC [8]: 2.5 ng/mL (≈ 4.68 nM)
